Assay type in all cases: functional, Homo sapiens
Test [1] deals with MCF7. The experiment in a line: Antiproliferative activity on MCF-7 Cell Growth was determined by measuring [3H]thymidine incorporation at the concentration of 10 nM. (In general: Dividing cells build labelled thymidine or BrdU into new DNA.)
Test [2] deals with MCF7. Put plainly: Antiproliferative activity on MCF-7 Cell Growth was determined by measuring [3H]thymidine incorporation at the concentration of 0.1 nM.
The test system of test [3] is MCF7. The experiment in a line: Antiproliferative activity on MCF-7 Cell Growth was determined by measuring [3H]thymidine incorporation at the concentration of 1 uM.

For `COc1cc(C)c(/C=C/C(C)=C/C=C/C(C)=C/C(=O)NC2OC(CO)C(O)C(O)C2O)c(C)c1C` (centres undefined), the Control was >100% in test [1], >50% in test [2] and >100% in test [3].

Regarding `COc1cc(C)c(/C=C/C(C)=C/C=C/C(C)=C/C(=O)O)c(C)c1C` [ACITRETIN], the Control in test [1] is reported as >50%; in test [2] it was >50%; in test [3], <50%.

`COc1cc(C)c(/C=C/C(C)=C/C=C/C(C)=C/C(=O)NC2OC(C(=O)O)C(O)C(O)C2O)c(C)c1C` (centres undefined): the Control was >50% in test [1], <50% in test [2] and <50% in test [3].

For the origin of these results see ChEMBL document CHEMBL1129809, “N-linked glycoside/glucuronide conjugates of retinoids: acitretin” (1997).
